Assay results taken from article PMC5760531, “Action Potential Recording and Pro-arrhythmia Risk Analysis in Human Ventricular Trabeculae” (Frontiers in Physiology, 2018).
Several values for one entry are separate records, joined by “and”; a condition that tells them apart may be missing. Equal entries are not always repeated.

System: human ventricular trabeculae
Assay: Action potential recording and pro-arrhythmic score analysis in human ventricular trabeculae (hVT);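 note: sharp microelectrode action potential recordings at 37°C in Tyrode-perfused trabeculae, 4 cumulative concentrations each applied 31 min, values averaged over last 30 APs, vehicle 0.1% DMSO as control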
[1] = 2Hz, 15-FOLD free ETPC (0.002µM)
[2] = 2Hz, 150-FOLD free ETPC (0.002µM)
[3] = 2Hz, 1500-FOLD free ETPC (0.002µM)
[4] = average raw data, 1Hz, c2-c5: 1.5-, 15-, 150-, 1500-FOLD free ETPC (0.002µM)

For `O=C1NCCN1CCN1CCC(c2cn(-c3ccc(F)cc3)c3ccc(Cl)cc23)CC1` [SERTINDOLE, Sertindole], the APD50 [1] was 139, the “APD50 percentage change compared to vehicle control” value (“APD50 percentage change” for short) [1] was 0% and the APD90 [1] was 199. For the same compound, the “APD90 percentage change compared to vehicle control” value (“APD90 percentage change” below) [1] was 1%, the Alternans [1] was 0.69 and the “Alternans percentage change compared to vehicle control” value (shortened to “Alternans percentage change”) [1] was -17%. For the same compound, the “Beat Escape” value [1] was 0, the “Beat Escape percentage change compared to vehicle control” value (“Beat Escape percentage change” for short) [1] was 0% and the EADs [1] was 0. The “EADs percentage change compared to vehicle control” value (from here on “EADs percentage change”) [1] was 0%, the ERP [1] was 0.44 and the “ERP percentage change compared to vehicle control” value (shortened to “ERP percentage change”) [1] was 4%. The “Max Dispersion” value [1] was 3.50, the “Max Dispersion percentage change compared to vehicle control” value (shortened to “Max Dispersion percentage change”) [1] was -23% and the RMP [1] was -87. The “RMP percentage change compared to vehicle control” value (from here on “RMP percentage change”) [1] was 3%, the “Refractoriness Escape” value [1] was 0 and the “Refractoriness Escape percentage change compared to vehicle control” value (from here on “Refractoriness Escape percentage change”) [1] was 0%. The STV [1] was 0.48, the Triangulation [1] was 95 and the “Triangulation percentage change compared to vehicle control” value (“Triangulation percentage change” below) [1] was 3%. For the same compound, the AMAX [2] was 110, the “AMAX percentage change compared to vehicle control” value [2] was 5% and the APD30 [2] was 112. The “APD30 percentage change compared to vehicle control” value [2] was 6%, the APD50 [2] was 150 and the “APD50 percentage change” value [2] was 8%. For the same compound, the APD90 [2] was 214, the “APD90 percentage change” value [2] was 9% and the “Alternans percentage change” value [2] was 30%. The “Beat Escape” value [2] was 0, the “Beat Escape percentage change” value [2] was 0% and the EADs [2] was 0. For the same compound, the “EADs percentage change” value [2] was 0%, the ERP [2] was 0.45 and the “ERP percentage change” value [2] was 7%. For the same compound, the “Max Dispersion” value [2] was 3.78, the “Max Dispersion percentage change” value [2] was -17% and the RMP [2] was -87. For the same compound, the “RMP percentage change” value [2] was 3%, the “Refractoriness Escape” value [2] was 0 and the “Refractoriness Escape percentage change” value [2] was 0%. The STV [2] was 0.78, the Triangulation [2] was 103 and the “Triangulation percentage change” value [2] was 12%. The AMAX [3] was 110, the “AMAX percentage change compared to vehicle control” value [3] was 4% and the APD30 [3] was 107. The “APD30 percentage change compared to vehicle control” value [3] was 1%, the APD50 [3] was 150 and the “APD50 percentage change” value [3] was 8%. The APD90 [3] was 221, the “APD90 percentage change” value [3] was 12% and the Alternans [3] was 0.59. For the same compound, the “Alternans percentage change” value [3] was -29%, the “Beat Escape” value [3] was 0 and the “Beat Escape percentage change” value [3] was 0%. For the same compound, the EADs [3] was 0, the “EADs percentage change” value [3] was 0% and the ERP [3] was 0.48. For the same compound, the “ERP percentage change” value [3] was 13%, the “Max Dispersion” value [3] was 2.80 and the “Max Dispersion percentage change” value [3] was -39%. The RMP [3] was -87, the “RMP percentage change” value [3] was 3% and the “Refractoriness Escape” value [3] was 0. For the same compound, the “Refractoriness Escape percentage change” value [3] was 0%, the STV [3] was 0.42 and the Triangulation [3] was 114. The “Triangulation percentage change” value [3] was 23%, the “TdP identification by pro-arrhythmic score” value (at 10-fold human free ETPC, score >10 unsafe, <10 safe) was “TdP negative” and the AMAX [4] was 112 mV and 111 mV. For the same compound, the APD30 [4] was 159 ms and 150 ms and 158 ms and 153 ms, the APD50 [4] was 205 ms and 195 ms and 207 ms and 206 ms and the APD90 [4] was 272 ms and 261 ms and 279 ms and 282 ms. The Alternans [4] was 0.83 and 0.51 and 0.71 and 0.47, the “Beat Escape” value [4] was 0 and the EADs [4] was 0. The ERP [4] was 0.41 and 0.42 and 0.44 and 0.46, the “Max Dispersion” value [4] was 3.13 and 2.38 and 3.55 and 2.58 and the “Refractoriness Escape” value [4] was 0. The STV [4] was 0.54 and 0.39 and 0.47 and 0.31 and the Triangulation [4] was 113 and 111 and 121 and 129.
